In US11612573B2, “Topical pharmaceutical compositions” (Dermavant Sciences GmbH, priority 2015, dated 2023):
Marks after values point to notes of the source that are not given here.

How the values were obtained:
[1] = 28 day twice daily topical administration, toxicokinetics, dermal irritancy and toxicity; assay type: in vivo, Gottingen minipigs; details: for concentration at 29 day: Skin Concentration
Method: Following dose application on each dosing day, the dose sites were semi-occluded for approximately 20±1 hours from the first dose and then gently washed before the next dose was applied.

[2] = solubility of the active ingredient in solvents; assay type: physicochemical
Method: The solubility of the active ingredient in different solvents was determined. […] The following formulations were prepared with 5%, 10%, 15% and 20% MCT (Formulations 15-18). Two formulations (Formulations 19 and 20) were also prepared where Polawax (a proprietary blend of cetostearyl alcohol and emulsifiers) was replaced with cetostearyl alcohol and additional emulsifier.

AhR pathway = details: intestinal human colon adenocarcinoma
[3] = Dermal 4% cream, BID, Minipig, 13 weeks
[4] = Gao et al., Journal of Polymer Research 2011; cited from earlier work
in vivo [5] = details: minipig, topical or ocular, 4 % cream, BID
in vivo [6] = details: rat, sc, 3 mg/kg/day

**Q.** Which “survival to scheduled necropsy” value ([1]; 28 days) does the source give for `CC(C)c1c(O)cc(/C=C/c2ccccc2)cc1O` [3,5-Dihydroxy-4-isopropyl-trans-stilbene] here?
**A.** All animals survived

**Q.** And the Tmax ([1]; both sexes, Gottingen, minipig, in vivo, 60 mg/kg/day)?
**A.** 1 to 3 h

**Q.** What about the NOAEL at 28 days ([1]; both sexes, Gottingen, minipig, in vivo, topical or ocular, highest dose tested, 28 days, read-out: NOAEL for dermal irritation or systemic toxicity) of the same compound?
**A.** 60 mg/kg/day

**Q.** And the concentration at 29 day ([1]; female, Gottingen, minipig, 10 mg/kg/day, Epidermis/Upper Dermis)?
**A.** 2540 ng/g

**Q.** What about the concentration at 29 day ([1]; female, Gottingen, minipig, 20 mg/kg/day, Epidermis/Upper Dermis) of the same compound?
**A.** 2270 ng/g

**Q.** And the concentration at 29 day ([1]; female, Gottingen, minipig, 20 mg/kg/day, Lower Dermis)?
**A.** 305 ng/g

**Q.** And the concentration at 29 day ([1]; female, Gottingen, minipig, 60 mg/kg/day, Epidermis/Upper Dermis)?
**A.** 6530 ng/g

**Q.** And the concentration at 29 day ([1]; female, Gottingen, minipig, 60 mg/kg/day, Lower Dermis)?
**A.** 3040 ng/g

**Q.** What about the AUC(0-t) ([1]; female, Gottingen, minipig, in vivo, topical or ocular, 60 mg/kg/day) of the same compound?
**A.** 4.84 ng·h/mL

**Q.** What about the concentration at 29 day ([1]; male, Gottingen, minipig, 10 mg/kg/day, Epidermis/Upper Dermis) of the same compound?
**A.** 4830 ng/g

**Q.** What about the concentration at 29 day ([1]; male, Gottingen, minipig, 10 mg/kg/day, Lower Dermis) of the same compound?
**A.** 166 ng/g

**Q.** And the concentration at 29 day ([1]; male, Gottingen, minipig, 20 mg/kg/day, Epidermis/Upper Dermis)?
**A.** 3950 ng/g

**Q.** And the concentration at 29 day ([1]; male, Gottingen, minipig, 20 mg/kg/day, Lower Dermis)?
**A.** 615 ng/g

**Q.** What about the concentration at 29 day ([1]; male, Gottingen, minipig, 60 mg/kg/day, Epidermis/Upper Dermis) of the same compound?
**A.** 10000 ng/g

**Q.** What about the concentration at 29 day ([1]; male, Gottingen, minipig, 60 mg/kg/day, Lower Dermis) of the same compound?
**A.** 3660 ng/g

**Q.** What about the “dermal irritation at the dose site” value ([1]; minipig, in vivo, 60 mg/kg/day) of the same compound?
**A.** no test article-related dermal irritation

**Q.** What about the “solubility in medium chain triglycerides (MCT)” value [2] of the same compound?
**A.** good solubility

**Q.** What about the solubility in water [2] of the same compound?
**A.** not soluble

**Q.** What about the “activity on the AhR pathway” value (AhR pathway) of the same compound?
**A.** activator

**Q.** And the “Cmax NOAEL” value [3]?
**A.** 7.13* ng/mL

**Q.** What about the “sensitivity to oxidation and photo degradation” value [4] of the same compound?
**A.** sensitive to oxidation and photo degradation

**Q.** What about the AUC at 13 weeks (in vivo [5]) of the same compound?
**A.** 99 ng·h/mL

**Q.** And the Cmax (in vivo [5])?
**A.** 7.13 ng/mL

**Q.** And the Cmax (in vivo [6])?
**A.** 31.6 ng/mL
